Reference: patent US7763641B2, “Broadspectrum heterocyclic substituted phenyl containing sulfonamide HIV protease inhibitors” (Tibotec Pharmaceuticals Ltd., priority 2001, dated 2010)
Where two headings read alike, the source gives them in different places.

Assays:
mock-infected MT4 cells = assay: Toxicity on mock-infected cells (MTT)
Protocol: (§1) HIV- or mock-infected MT4 cells were incubated for five days in the presence of various concentrations of the inhibitor. […] Cell viability is measured by measuring the concentration of MTT, a yellow, water soluble tetrazolium dye that is converted to a purple, water insoluble formazan in the mitochondria of living cells only. Upon solubilization of the resulting formazan crystals with isopropanol, the absorbance of the solution is monitored at 540 nm. The values correlate directly to the number of living cells remaining in the culture at the completion of the five day incubation. The inhibitory activity of the compound was monitored on the virus-infected cells and was expressed as EC50 and EC90. These values represent the amount of the compound required to protect 50% and 90%, respectively, of the cells from the cytopathogenic effect of the virus. […] The selectivity index (SI) (ratio CC50/EC50) is an indication of the selectivity of the anti-HIV activity of the inhibitor. Wherever results are reported as e.g. pEC50 or pCC50 values, the result is expressed as the negative logarithm of the result expressed as EC50 or CC50 respectively.
(§2) As a measure of the broad spectrum activity of the present compounds, the fold resistance (FR), defined as FR=EC50 (mutant strain)/EC50 (HIV-1 strain LAI), was determined.

HIV strain E = assay: Cellular anti-HIV assay, clinically isolated mutant strain E; format: cell-based; conditions: FR=EC50 (mutant strain)/EC50 (HIV-1 strain LAI)
Protocol: as §1
(§3) Because of the increasing emergence of drug resistant HIV strains, the present compounds were tested for their potency against clinically isolated HIV strains harboring several mutations (Table 7 and 8).
as §2

HIV-1 strain LAI = assay: Cellular anti-HIV assay (MTT), wild type strain; format: cell-based; conditions: for pEC50: MT4 cells, five days, MTT, HIV-1 strain LAI, Tables 1-6; for WT (pEC50 against wild type HIV-LAI strain): Table 8
Protocol: The compounds of the present invention were examined for anti-viral activity in a cellular assay. […] The cellular assay was performed according to the following procedure.

HIV strain B = assay: Cellular anti-HIV assay, clinically isolated mutant strain B; format: cell-based; conditions: FR=EC50 (mutant strain)/EC50 (HIV-1 strain LAI)
Protocol: as §1, §3, §2

HIV strain C = assay: Cellular anti-HIV assay, clinically isolated mutant strain C; format: cell-based; conditions: FR=EC50 (mutant strain)/EC50 (HIV-1 strain LAI)
Protocol: as §1, §3, §2

HIV strain A = assay: Cellular anti-HIV assay, clinically isolated mutant strain A; format: cell-based; conditions: FR=EC50 (mutant strain)/EC50 (HIV-1 strain LAI)
Protocol: as §1, §3, §2

HIV strain F = assay: Cellular anti-HIV assay, clinically isolated mutant strain F; format: cell-based; conditions: FR=EC50 (mutant strain)/EC50 (HIV-1 strain LAI)
Protocol: as §1, §3, §2

HIV strain D = assay: Cellular anti-HIV assay, clinically isolated mutant strain D; format: cell-based; conditions: FR=EC50 (mutant strain)/EC50 (HIV-1 strain LAI)
Protocol: as §1, §3, §2

[1] = pCC50 with mock transfected cells

Row | SMILES | Tox (pCC50) (mock-infected MT4 cells; [1]) | E (FR towards mutant E) (HIV strain E) | pEC50 (HIV-1 strain LAI) | WT (pEC50 against wild type HIV-LAI strain) (HIV-1 strain LAI) | B (FR towards mutant B) (HIV strain B) | C (FR towards mutant C) (HIV strain C) | A (FR value towards mutant A) (HIV strain A) | F (FR towards mutant F) (HIV strain F) | Tox (pCC50) (mock-infected MT4 cells) | D (FR towards mutant D) (HIV strain D)
1 | CC(C)CN(CC(O)C(Cc1ccccc1)NC(=O)OC1COC2OCCC12)S(=O)(=O)c1ccc(-c2csc(Nc3ccncc3)n2)cc1 (centres unmarked) [Compound 5] | 4.95 | 13.5 | 7.6 | 7.6 | 6.3 | 3.0 | 22.3 |  |  | 
2 | Cc1cccc(C)c1OCC(=O)N[C@@H](Cc1ccccc1)[C@H](O)CN(CC(C)C)S(=O)(=O)c1ccc(-c2cc[nH]n2)cc1 [Compound 24, [(1S,2R)-2-hydroxy-3-[N-(2-methylpropyl)-N-(4-pyrazol-3(5)-ylphenylsulfonyl)-amino]-1-(phenylmethyl)propyl]-(2,6-dimethylphenoxy) acetamide] | 4.2 | 3.1 | 7.1 | 7.1 |  |  | 1.1 |  |  | 
3 | CC(=O)Nc1nc(-c2ccc(S(=O)(=O)N(CC(C)C)CC(O)C(Cc3ccccc3)NC(=O)OC3COC4OCCC34)cc2)c[nH]1 (centres unmarked) [Compound 32] | <4.0 | 0.95 | 7.7 | 7.7 | 1.0 | 0.33 | 1.3 | 7.2 |  | 
4 | CC(C)CN(CC(O)C(Cc1ccccc1)NC(=O)OC1COC2OCCC12)S(=O)(=O)c1ccc(-c2c[nH]c(NC(=O)OC3COC4OCCC34)n2)cc1 (centres unmarked) [Compound 33] | <4.0 | 0.19 | 6.7 | 6.7 | 0.66 | 0.2 | 0.71 | 2.6 |  | 
5 | Cc1nc(-c2ccc(S(=O)(=O)N(CC(C)C)C[C@@H](O)[C@H](Cc3ccccc3)NC(=O)OCc3cncs3)cc2)co1 [Compound 36, [(1S,2R)-2-hydroxy-3-[N-[4-(2-methyloxazol-4-yl)phenylsulfonyl]-N-(2-methylpropyl)amino]-1-(phenylmethyl)propyl]carbamic acid, (thiazol-5-ylmethyl)ester] |  |  | 6.3 |  |  |  |  |  |  | 
6 | CC(C)CN(CC(O)C(Cc1ccccc1)NC(=O)OC1COC2OCCC12)S(=O)(=O)c1ccc(-c2coc(N)n2)cc1 (centres unmarked) [Compound 37] |  |  | 8.4 |  |  |  |  |  |  | 
7 | CC(C)CN(CC(O)C(Cc1ccccc1)NC(=O)OC1COC2OCCC12)S(=O)(=O)c1ccc(-c2coc(COCc3ccccc3)n2)cc1 (centres unmarked) [Compound 39] |  | 52 | 8.1 | 8.1 |  |  | 36 |  | <4.0 | 
8 | CCCc1nc(-c2ccc(S(=O)(=O)N(CC(C)C)CC(O)C(Cc3ccccc3)NC(=O)OC3COC4OCCC34)cc2)co1 (centres unmarked) [Compound 40] |  | 41 | 8.5 | 8.5 |  | 4.1 | 5.0 | 219 | <4.49 | 12.9
9 | CC(C)CN(CC(O)C(Cc1ccccc1)NC(=O)OC1COC2OCCC12)S(=O)(=O)c1ccc(-c2coc(CCC(=O)O)n2)cc1 (centres unmarked) [Compound 41] |  |  | 7.2 |  |  |  |  |  |  | 
10 | CC(C)CN(CC(O)C(Cc1ccccc1)NC(=O)OC1COC2OCCC12)S(=O)(=O)c1ccc(-c2coc(-c3ccc([N+](=O)[O-])cc3)n2)cc1 (centres unmarked) [Compound 43] | <4.0 | 6.6 | 7.9 | 7.9 | 23 | 9.1 | 54 |  |  | 10.2
11 | CC(C)CN(CC(O)C(Cc1ccccc1)NC(=O)OC1COC2OCCC12)S(=O)(=O)c1ccc(-c2coc(-c3ccc4c(c3)OCO4)n2)cc1 (centres unmarked) [Compound 45] |  |  | 7.8 |  |  |  |  |  |  | 
12 | Cc1cc(-c2nc(-c3ccc(S(=O)(=O)N(CC(C)C)CC(O)C(Cc4ccccc4)NC(=O)OC4COC5OCCC45)cc3)co2)no1 (centres unmarked) [Compound 46] |  | 9.8 | 8.4 | 8.4 | 32 | 9.1 | 182 |  | <4.49 | 32
13 | CC(C)CN(CC(O)C(Cc1ccccc1)NC(=O)OC1COC2OCCC12)S(=O)(=O)c1ccc(-c2coc(-c3ccc(I)cc3)n2)cc1 (centres unmarked) [Compound 47] |  |  | 7.1 |  |  |  |  |  |  | 
14 | CC(=O)OC(c1ccccc1)c1nc(-c2ccc(S(=O)(=O)N(CC(C)C)CC(O)C(Cc3ccccc3)NC(=O)OC3COC4OCCC34)cc2)co1 (centres unmarked) [Compound 48] |  | 6.9 | 8.3 | 8.3 | 25 | 5.8 | 89 |  | <4.0 | 17
15 | CC(C)Cc1nc(-c2ccc(S(=O)(=O)N(CC(C)C)CC(O)C(Cc3ccccc3)NC(=O)OC3COC4OCCC34)cc2)co1 (centres unmarked) [Compound 49] |  | 10 | 8.1 | 8.1 | 21 | 4.4 |  |  | <4.49 | 
16 | CC(C)CN(CC(O)C(Cc1ccccc1)NC(=O)OC1COC2OCCC12)S(=O)(=O)c1ccc(-c2coc(-c3cccs3)n2)cc1 (centres unmarked) [Compound 50] |  |  | 8.0 | 8.0 | 14 | 4.3 |  |  | <4.49 | 13
17 | CC(C)CN(CC(O)C(Cc1ccccc1)NC(=O)OC1COC2OCCC12)S(=O)(=O)c1ccc(-c2coc(-c3ccc(Br)cc3)n2)cc1 (centres unmarked) [Compound 51] | <4.49 | 4.8 | 7.5 | 7.5 |  | 4.8 |  |  |  | 12
18 | CC(C)CN(CC(O)C(Cc1ccccc1)NC(=O)OC1COC2OCCC12)S(=O)(=O)c1ccc(-c2coc(-c3ccc(C#N)cc3)n2)cc1 (centres unmarked) [Compound 52] |  | 11 | 8.1 | 8.1 | 17 | 6.2 |  |  | <4.49 | 16
19 | CC(C)CN(CC(O)C(Cc1ccccc1)NC(=O)OC1COC2OCCC12)S(=O)(=O)c1ccc(-c2cn3ccsc3n2)cc1 (centres unmarked) [Compound 53] |  |  | 7.6 |  |  |  |  |  |  | 
20 | CC(C)CN(C[C@@H](O)[C@H](Cc1ccccc1)NC(=O)O[C@H]1CO[C@H]2OCC[C@H]21)S(=O)(=O)c1ccc(-c2cnccn2)cc1 [Compound 56, [(1S,2R)-2-hydroxy-3-[N-(2-methylpropyl)-N-[4-(pyrazin-2-yl)-phenylsulfonyl]amino]-1-(phenylmethyl)propyl]carbamic acid, [(3R,3aS,6aR)-hexahydrofuro[2,3-b]furan-3-yl]ester] |  |  | 8.1 |  |  |  |  |  |  | 
21 | CC(C)CN(CC(O)C(Cc1ccccc1)NC(=O)OC1COC2OCCC12)S(=O)(=O)c1ccc(-c2nc(N)nc(N)n2)cc1 (centres unmarked) [Compound 58] |  |  | 6.0 |  |  |  |  |  |  | 
